Structures are written as SMILES.

This assay addresses T1, CX3CR1 (Homo sapiens, UniProt P49238).
T1 construct: expressed in transfected cells; host or cells: B300 cells
T1 sequence (P49238 1-355): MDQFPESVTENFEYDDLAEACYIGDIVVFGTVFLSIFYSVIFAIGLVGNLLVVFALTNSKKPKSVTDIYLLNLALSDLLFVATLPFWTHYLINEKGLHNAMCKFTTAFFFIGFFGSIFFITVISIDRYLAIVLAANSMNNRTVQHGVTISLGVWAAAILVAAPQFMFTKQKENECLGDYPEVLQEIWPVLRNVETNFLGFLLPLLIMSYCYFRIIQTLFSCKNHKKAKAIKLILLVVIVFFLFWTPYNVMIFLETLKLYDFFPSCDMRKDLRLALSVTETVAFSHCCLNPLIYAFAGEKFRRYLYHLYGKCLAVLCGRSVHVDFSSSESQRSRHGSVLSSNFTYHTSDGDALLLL
As to the kind of experiment: Inhibition of cell migration in fractalkine-induced chemotaxis assay. It counts as cell-based. To be noted: CX3CR1-expressing B300 cells preincubated with test compound 30 minutes; fractalkine 0.3 nM in lower wells; Transwell, 3.5 hours at 37° C.; migrated cells counted with CellTiter; read-out: IC50 (nM), 50% inhibitory concentration on fractalkine-induced cell migration. As for the experimental part:
The inhibitory effects of the example compounds on fractalkine-induced cell migration were examined using CX3CR1-transfected B300 cells
After equilibrating the Transwell plate (24-well clusters, pore size: 5 μm, manufactured by Corning Incorporated), a fractalkine solution (0.3 nM, manufactured by R&D Systems, Inc.) was added to the lower wells. CX3CR1-expressing B300 cells which were preincubated with the test compound (0.001, 0.003, 0.01 or 0.03 μM) for 30 minutes were placed in the upper layer wells, followed by incubation under the condition of 5% CO2 for 3.5 hours at 37° C. The number of cells migrated to the lower wells was evaluated using CellTiter (manufactured by Promega Corporation).
The inhibitory rate of the test compound on fractalkine-induced cell migration was calculated by the following formula, where [A] is the number of migrated cells in the presence of both fractalkine and the test compound, [B] is the number of migrated cells in the presence of fractalkine and in the absence of the test compound, and [C] is the number of migrated cells in the absence of both fractalkine and the test compound; the 50% inhibitory concentration (IC50) was calculated based on the inhibitory rate. Inhibitory rate (%)=[1−{(A−C)/(B−C)}]×100 (2) Results
For `Cc1cccc(Cl)c1CN1C[C@H](C)[C@](CC(=O)O)(C(=O)NC2CCN(CC3=CCCC3)CC2)C1` [Example 8, 2-[(3S,4R)-1-[(2-Chloro-6-methylphenyl)methyl]-3-{[(1-cyclopent-1-en-1-ylmethyl)piperidin-4-yl]carbamoyl}-4-methylpyrrolidin-3-yl]acetic acid], the IC50 was 31 nM.
In the case of `C[C@H]1CN(Cc2c(Cl)cccc2Cl)C[C@@]1(CC(=O)O)C(=O)N[C@H]1CCN(CC2=CCCCC2)C1` (relative stereo) [Example 9] it was 16 nM; in that of `C[C@H]1CN(Cc2c(Cl)cccc2Cl)C[C@@]1(CC(=O)O)C(=O)NC1CCN(CC2=CCCCC2)CC1` [Example 11, 2-[(3S,4R)-3-{[(1-Cyclohex-1-en-1-ylmethyl)piperidin-4-yl]carbamoyl}-1-[(2,6-dichlorophenyl)methyl]-4-methylpyrrolidin-3-yl]acetic acid], 6 nM.

Values taken from patent US8476301B2, “Pyrrolidin-3-ylacetic acid derivative” (Eisai R&D Management Co., Ltd., priority 2011, dated 2013).
